Data on 11 compounds can be found in patent publication US20250163104A1, “MACROCYCLIC IMMUNOMODULATORS” (priority 2021, published 2025).

pIC50: −log10 of the molar value. Where a SMILES comes first, the peptide text is derived from it. Bridges are numbered along the chain shown (N, C = ends). [ ]: non-standard residue; d: D form. The star is where a group is joined. ξ: configuration not given here. Phe(3-CF3) = N[C@@H](Cc1cccc(C(F)(F)F)c1)C(=O)O; Ala(morpholin-4-yl) = N[C@@H](CN1CCOCC1)C(=O)O; Phe(4-COOH) = N[C@@H](Cc1ccc(C(=O)O)cc1)C(=O)O; Bip = N[C@@H](Cc1ccc(-c2ccccc2)cc1)C(=O)O; Phe(3-Me) = Cc1cccc(C[C@H](N)C(=O)O)c1; Val(3-OH) = CC(C)(O)[C@H](N)C(=O)O; 4Pal = N[C@@H](Cc1ccncc1)C(=O)O; Aad = N[C@@H](CCCC(=O)O)C(=O)O; Cha = N[C@@H](CC1CCCCC1)C(=O)O; Cit = NC(=O)NCCC[C@H](N)C(=O)O; Thr(3ξ) = CC(O)[C@H](N)C(=O)O; NMeNle = CCCC[C@H](NC)C(=O)O; Carboxymethyl = O=C(O)C*; Orn = NCCC[C@H](N)C(=O)O; Pra = C#CC[C@H](N)C(=O)O; Dab = NCC[C@H](N)C(=O)O; Dap = NC[C@H](N)C(=O)O

This assay has as its target T1, human PD-1 / PD-L1-Ig binding on Jurkat cell line over-expressing human PD-1 (Jurkat-PD-1) (Homo sapiens, UniProt Q15116).
T1 construct: expressed in transfected cells; host or cells: Jurkat
As to the kind of experiment: Jurkat-PD-1 Cell Binding High-Content Screening Assay (CBA). Format: cell-based. As to conditions: Jurkat-PD-1 cells, PE-labeled PD-L1-Ig 20 nM final; read-out: Jurkat HPD1_PDL1 IC50. The method in brief: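 Binding of fluorescent PD-L1-Ig (phycoerythrin linked via the Ig tag, 20 nM final) to PD-1-overexpressing Jurkat cells was imaged after a 2 h, 37° C compound pretreatment and 1 hour ligand incubation.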

T1 sequence (Q15116 25-288): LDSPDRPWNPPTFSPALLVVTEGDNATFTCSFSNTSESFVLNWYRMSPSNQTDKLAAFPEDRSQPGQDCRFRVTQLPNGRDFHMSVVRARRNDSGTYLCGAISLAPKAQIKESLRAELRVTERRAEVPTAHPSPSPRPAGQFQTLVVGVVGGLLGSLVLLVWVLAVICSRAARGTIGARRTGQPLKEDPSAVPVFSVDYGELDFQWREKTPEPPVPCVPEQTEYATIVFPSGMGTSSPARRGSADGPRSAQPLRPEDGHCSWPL

A word on the pIC50: it is −log10 of the IC50, conventionally taken in molar units. For the compound `Cc1cccc(C[C@@H]2NC(=O)[C@H](CC(=O)O)NC(=O)[C@H](Cc3ccc(OCC(=O)O)cc3)NC(=O)[C@H](CCCC(=O)O)NC(=O)CSC[C@@H](C(=O)N[C@@H](C)C(N)=O)NC(=O)[C@H](CO)NC(=O)[C@H](C(C)C)NC(=O)[C@H](CC3CCCCC3)NC(=O)[C@H](CCN)NC(=O)[C@@H](CC(C)C)NC(=O)[C@H](CCCN)NC(=O)[C@H](C(C)C)NC(=O)[C@H](Cc3ccc(-c4ccccc4)cc3)NC(=O)[C@H](C(C)C)NC2=O)c1` [Compound 2537] ({CH2CO}-[Aad]Y(Carboxymethyl)D[Phe(3-Me)]V[Bip]V[Orn][dL][Dab][Cha]VSCA-NH2; thioether N-14), the pIC50 is 7.74. As to `COc1cccc(C[C@@H]2NC(=O)[C@H](CC(=O)O)NC(=O)[C@H](Cc3ccc(O)cc3)NC(=O)[C@H](Cc3ccncc3)NC(=O)CSC[C@@H](C(=O)N[C@@H](C)C(N)=O)NC(=O)[C@H]([C@@H](C)O)NC(=O)[C@H](C(C)C)NC(=O)[C@H](CC3CCCCC3)NC(=O)[C@H](CCN)NC(=O)[C@@H](CC(C)C)NC(=O)[C@H](CCCN)NC(=O)[C@H](CCC(=O)O)NC(=O)[C@H](Cc3ccc(-c4ccccc4)cc3)NC(=O)[C@H](C(C)C)NC2=O)c1` [Compound 1543], the pIC50 was 7.56. As for `CC(C)C[C@H]1NC(=O)[C@H](CCCN)NC(=O)[C@H](C(C)C)NC(=O)[C@H](Cc2ccc(-c3ccccc3)cc2)NC(=O)[C@H](C(C)C)NC(=O)[C@H](Cc2c[nH]c3ccccc23)NC(=O)[C@H](CC(=O)O)NC(=O)[C@H](Cc2ccc(O)cc2)NC(=O)[C@H](CC#N)NC(=O)CSC[C@@H](C(=O)N[C@@H](C)C(N)=O)NC(=O)[C@H](C(C)O)NC(=O)[C@H](C(C)C)NC(=O)[C@H](CC2CCCCC2)NC(=O)[C@H](CCN)NC1=O` (some centres unmarked) [Compound 2536], the negative-log IC50 (pIC50) was 7.96.

With `CC(C)C[C@@H]1NC(=O)[C@H](Cc2c[nH]c3ccccc23)NC(=O)[C@H](CC(=O)O)NC(=O)[C@H](Cc2ccc(OCC(=O)O)cc2)NC(=O)[C@H](C(C)O)NC(=O)CSC[C@@H](C(N)=O)NC(=O)[C@H](CO)NC(=O)[C@H](C(C)C)NC(=O)[C@H](CC2CCCCC2)NC(=O)[C@H](Cc2cnc[nH]2)NC(=O)[C@@H](CC(C)C)NC(=O)[C@H](CCC(=O)O)NC(=O)[C@H](C(C)C)NC(=O)[C@H](Cc2ccc(-c3ccccc3)cc2)NC1=O` (stereo partly drawn) [Compound 2609] ({CH2CO}-[Thr(3ξ)]Y(Carboxymethyl)DWL[Bip]VE[dL]H[Cha]VSC-NH2; thioether N-14), the negative-log IC50 (pIC50) is 7.05. For `C#CC[C@H](NC(=O)[C@H](C)NC(=O)[C@@H]1CSCC(=O)N[C@@H](CN)C(=O)N[C@@H](Cc2ccc(OCC(=O)O)cc2)C(=O)N[C@@H](CC(=O)O)C(=O)N[C@@H](Cc2cccc(C)c2)C(=O)N[C@@H](C(C)C)C(=O)N[C@@H](Cc2ccc(-c3ccccc3)cc2)C(=O)N[C@@H](CCCNC(N)=O)C(=O)N[C@@H](CCCN)C(=O)N[C@H](CC(C)C)C(=O)N[C@@H](CCN)C(=O)N[C@@H](CC2CCCCC2)C(=O)N[C@@H](C(C)C)C(=O)N[C@@H]([C@@H](C)O)C(=O)N1)C(=O)O` [Compound 2262], the pIC50 was 7.20. Take `C#CC[C@H](NC(=O)[C@H](CCN)NC(=O)[C@@H]1CSCC(=O)N[C@@H](CN)C(=O)N[C@@H](Cc2ccc(OCC(=O)O)cc2)C(=O)N[C@@H](CC(=O)O)C(=O)N[C@@H](Cc2cccc(C)c2)C(=O)N[C@@H](Cc2ccc(OCC(=O)O)cc2)C(=O)N[C@@H](Cc2ccc(-c3ccccc3)cc2)C(=O)N[C@@H](Cc2ccc(OCC(=O)O)cc2)C(=O)N[C@@H](CCCN)C(=O)N[C@H](CC(C)C)C(=O)N[C@@H](CCN)C(=O)N[C@@H](CC2CCCCC2)C(=O)N[C@@H](C(C)(C)O)C(=O)N[C@@H](CO)C(=O)N1)C(=O)O` [Compound 2316] ({CH2CO}-[Dap]Y(Carboxymethyl)D[Phe(3-Me)]Y(Carboxymethyl)[Bip]Y(Carboxymethyl)[Orn][dL][Dab][Cha][Val(3-OH)]SC[Dab][Pra]-OH; thioether N-14): the negative logarithm of the IC50 (pIC50) is 8.19. Turning to `CC(C)C[C@H]1NC(=O)[C@H](CCCN)NC(=O)[C@H](Cc2ccc(C(=O)O)cc2)NC(=O)[C@H](Cc2ccc(-c3ccccc3)cc2)NC(=O)[C@H](Cc2ccc(C(=O)O)cc2)NC(=O)[C@H](Cc2cccc(C(F)(F)F)c2)NC(=O)[C@H](CC(N)=O)NC(=O)[C@H](Cc2ccc(C(=O)O)cc2)NC(=O)[C@H](CN2CCOCC2)NC(=O)CSC[C@@H](C(=O)N[C@@H](CCN)C(N)=O)NC(=O)[C@H](CO)NC(=O)[C@H](C(C)(C)O)NC(=O)[C@H](CC2CCCCC2)NC(=O)[C@H](CCN)NC1=O` [Example 2719] ({CH2CO}-[Ala(morpholin-4-yl)][Phe(4-COOH)]N[Phe(3-CF3)][Phe(4-COOH)][Bip][Phe(4-COOH)][Orn][dL][Dab][Cha][Val(3-OH)]SC[Dab]-NH2; thioether N-14), the negative-log IC50 (pIC50) was 7.36. As for `CCCC[C@H]1C(=O)N[C@@H](Cc2ccc(C(=O)O)cc2)C(=O)N[C@@H](CC(=O)O)C(=O)N[C@@H](Cc2c[nH]c3ccccc23)C(=O)N[C@@H](C(C)C)C(=O)N[C@@H](Cc2ccc(-c3ccccc3)cc2)C(=O)N[C@@H](C(C)C)C(=O)N[C@@H](CCCN)C(=O)N[C@H](CC(C)C)C(=O)N[C@@H](CCN)C(=O)N[C@@H](CC2CCCCC2)C(=O)N[C@@H](C(C)C)C(=O)N[C@@H](C(C)O)C(=O)N[C@H](C(=O)N[C@@H](CC(N)=O)C(N)=O)CSCC(=O)N1C` (stereo partly drawn) [Compound 2551] ({CH2CO}-[NMeNle][Phe(4-COOH)]DWV[Bip]V[Orn][dL][Dab][Cha]V[Thr(3ξ)]CN-NH2; thioether N-14), the negative logarithm of the IC50 (pIC50) is 7.03. Regarding `Cc1cccc(C[C@@H]2NC(=O)[C@H](CC(=O)O)NC(=O)[C@H](Cc3ccc(C(=O)O)cc3)NC(=O)[C@H](Cc3ccncc3)NC(=O)CSC[C@@H](C(=O)N[C@H](CC(N)=O)C(N)=O)NC(=O)[C@H](CCC(=O)O)NC(=O)[C@H](C(C)C)NC(=O)[C@H](CC3CCCCC3)NC(=O)[C@H](CCN)NC(=O)[C@@H](CC(C)C)NC(=O)[C@H](CCCN)NC(=O)[C@H](Cc3ccc(OCC(=O)O)cc3)NC(=O)[C@H](Cc3ccc(-c4ccccc4)cc3)NC(=O)[C@H](Cc3ccc(OCC(=O)O)cc3)NC2=O)c1` [Compound 2314] ({CH2CO}-[4Pal][Phe(4-COOH)]D[Phe(3-Me)]Y(Carboxymethyl)[Bip]Y(Carboxymethyl)[Orn][dL][Dab][Cha]VEC[dN]-NH2; thioether N-14), the negative logarithm of the IC50 (pIC50) is 7.34.

With `Cc1cccc(C[C@@H]2NC(=O)[C@H](CC(=O)O)NC(=O)[C@H](Cc3ccc(OCC(=O)O)cc3)NC(=O)[C@H](CCCNC(=N)N)NC(=O)CSC[C@@H](C(=O)N[C@@H](CO)C(N)=O)NC(=O)[C@H](CO)NC(=O)[C@H](C(C)C)NC(=O)[C@H](CC3CCCCC3)NC(=O)[C@H](CCCNC(=N)N)NC(=O)[C@@H](CC(C)C)NC(=O)[C@H](CCCN)NC(=O)[C@H](CCCNC(N)=O)NC(=O)[C@H](Cc3ccc(-c4ccccc4)cc3)NC(=O)[C@H](C(C)C)NC2=O)c1` [Compound 2597] ({CH2CO}-RY(Carboxymethyl)D[Phe(3-Me)]V[Bip][Cit][Orn][dL]R[Cha]VSCS-NH2; thioether N-14), the negative-log IC50 (pIC50) was 7.89. For `CCC(C)[C@@H]1NC(=O)[C@H](Cc2ccc(-c3ccccc3)cc2)NC(=O)[C@H](C(C)C)NC(=O)[C@H](Cc2cccc(C)c2)NC(=O)[C@H](CC(=O)O)NC(=O)[C@H](Cc2ccc(C(=O)O)cc2)NC(=O)[C@H](Cc2ccncc2)NC(=O)CSC[C@@H](C(=O)N[C@@H](CC(N)=O)C(N)=O)NC(=O)[C@H]([C@@H](C)O)NC(=O)[C@H](C(C)C)NC(=O)[C@H](CC2CCCCC2)NC(=O)[C@H](CCN)NC(=O)[C@@H](CC(C)C)NC(=O)[C@H](CCCN)NC1=O` (some centres unmarked) [Compound 2297] the value was 7.98.
